Publication PMC9569420 (Communications Biology, 2022)
Several values for one entry are separate records, joined by “and”; a condition that tells them apart may be missing. Equal values may be shown once.

How the values were obtained:
DYRK3 = biological target: T1, DYRK3 (Homo sapiens, UniProt O43781); assay: HotSpot kinase assay; format: biochemical; conditions: read-out: % Enzyme Activity (relative to DMSO controls)
T1 construct: purchased Reaction Biology Corporation

P38b/MAPK11 = biological target: T2, P38b/MAPK11 (Homo sapiens, UniProt Q15759); assay: HotSpot kinase assay; format: biochemical; conditions: read-out: % Enzyme Activity (relative to DMSO controls)
T2 construct: purchased Reaction Biology Corporation

PKCmu/PRKD1 = biological target: T3, PKCmu/PRKD1 (Homo sapiens, UniProt Q15139); assay: HotSpot kinase assay; format: biochemical; conditions: read-out: % Enzyme Activity (relative to DMSO controls)
T3 construct: purchased Reaction Biology Corporation

IR = biological target: T4, IR (Homo sapiens, UniProt P06213); assay: biochemical
T4 construct: purchased Reaction Biology Corporation
T4 sequence (P06213 980-1382 limits assumed): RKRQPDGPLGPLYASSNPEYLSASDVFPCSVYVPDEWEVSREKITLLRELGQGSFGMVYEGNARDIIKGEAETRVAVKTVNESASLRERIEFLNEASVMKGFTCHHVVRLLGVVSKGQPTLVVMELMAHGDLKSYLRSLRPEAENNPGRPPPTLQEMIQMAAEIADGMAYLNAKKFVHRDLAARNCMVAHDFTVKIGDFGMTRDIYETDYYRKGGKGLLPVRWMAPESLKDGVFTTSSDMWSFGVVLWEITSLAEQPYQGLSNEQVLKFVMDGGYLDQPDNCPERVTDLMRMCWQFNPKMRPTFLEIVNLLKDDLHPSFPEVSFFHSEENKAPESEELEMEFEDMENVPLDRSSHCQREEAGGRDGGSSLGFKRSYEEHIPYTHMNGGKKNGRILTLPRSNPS

GLK/MAP4K3 = biological target: T5, GLK/MAP4K3 (Homo sapiens, UniProt Q8IVH8); assay: HotSpot kinase assay; format: biochemical; conditions: read-out: % Enzyme Activity (relative to DMSO controls)
T5 construct: purchased Reaction Biology Corporation

KDR/VEGFR2 = biological target: T6, KDR/VEGFR2 (Homo sapiens, UniProt P35968); assay: HotSpot kinase assay; format: biochemical; conditions: read-out: % Enzyme Activity (relative to DMSO controls)
T6 construct: purchased Reaction Biology Corporation

PKCepsilon = biological target: T7, PKCepsilon (Homo sapiens, UniProt Q02156); assay: HotSpot kinase assay; format: biochemical; conditions: read-out: % Enzyme Activity (relative to DMSO controls)
T7 construct: purchased Reaction Biology Corporation

CDK16/cyclin Y (PCTAIRE) = biological target: T8, CDK16/cyclin Y (PCTAIRE) (Homo sapiens, UniProt Q00536); assay: HotSpot kinase assay; format: biochemical; conditions: read-out: % Enzyme Activity (relative to DMSO controls)
T8 construct: purchased Reaction Biology Corporation

WNK2 = biological target: T9, WNK2 (Homo sapiens, UniProt Q9Y3S1); assay: HotSpot kinase assay; format: biochemical; conditions: read-out: % Enzyme Activity (relative to DMSO controls)
T9 construct: purchased Reaction Biology Corporation

MEK5 = biological target: T10, MEK5 (Homo sapiens, UniProt Q13163); assay: HotSpot kinase assay; format: biochemical; conditions: read-out: % Enzyme Activity (relative to DMSO controls)
T10 construct: purchased Reaction Biology Corporation

MKK6 = biological target: T11, MKK6 (Homo sapiens, UniProt P52564); assay: HotSpot kinase assay; format: biochemical; conditions: read-out: % Enzyme Activity (relative to DMSO controls)
T11 construct: purchased Reaction Biology Corporation
T11 sequence (P52564 whole entry): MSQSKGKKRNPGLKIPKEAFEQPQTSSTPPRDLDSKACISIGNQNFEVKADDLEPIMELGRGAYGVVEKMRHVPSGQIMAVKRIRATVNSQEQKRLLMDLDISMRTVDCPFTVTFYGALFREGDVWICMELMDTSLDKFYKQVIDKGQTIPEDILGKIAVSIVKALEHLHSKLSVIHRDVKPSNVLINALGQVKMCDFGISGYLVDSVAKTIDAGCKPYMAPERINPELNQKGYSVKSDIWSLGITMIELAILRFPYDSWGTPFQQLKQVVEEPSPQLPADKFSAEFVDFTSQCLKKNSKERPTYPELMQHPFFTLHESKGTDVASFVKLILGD

NEK2 = biological target: T12, NEK2 (Homo sapiens, UniProt P51955); assay: HotSpot kinase assay; format: biochemical; conditions: read-out: % Enzyme Activity (relative to DMSO controls)
T12 construct: purchased Reaction Biology Corporation
T12 sequence (P51955 whole entry): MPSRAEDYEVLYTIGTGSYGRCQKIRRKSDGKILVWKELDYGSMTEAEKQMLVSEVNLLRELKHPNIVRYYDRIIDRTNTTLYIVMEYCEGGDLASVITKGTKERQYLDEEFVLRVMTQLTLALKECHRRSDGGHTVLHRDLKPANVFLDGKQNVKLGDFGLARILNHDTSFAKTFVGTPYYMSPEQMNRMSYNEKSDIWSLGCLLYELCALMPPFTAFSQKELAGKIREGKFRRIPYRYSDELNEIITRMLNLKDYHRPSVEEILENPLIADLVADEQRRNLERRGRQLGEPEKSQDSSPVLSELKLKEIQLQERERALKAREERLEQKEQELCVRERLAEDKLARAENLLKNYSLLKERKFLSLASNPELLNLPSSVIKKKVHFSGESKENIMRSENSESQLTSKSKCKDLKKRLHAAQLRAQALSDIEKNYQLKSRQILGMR

HaCat cells = assay: apoptosis assay (activated caspases, SYTOX Green); format: cell-based, human; conditions: 10µM
Description: Cell proliferation and viability were determined using the Cell Titer 96 Aqueous One Solution and optical density was determined using a SpectraMax M5e Molecular Devices multidetection microplate reader. […] The cells were then fixed and stained for activated caspases (red) and SYTOX Green (for integrity of plasma membrane) by Image-iT^TM LIVE red Poly Caspase Detection kit. Nuclei were stained with Hoechst. Images were acquired by laser confocal microscope ZeissLive/DuoScan equipped with oil immersion objectives 63 × 1.1 and captured in an optical slice of 0.37 µm with appropriate filters. Alternatively, immunoblots were prepared and probed with antibodies to cleaved PARP-1 or cleaved caspase 8.

ALK1/ACVRL1 = biological target: T13, ALK1/ACVRL1 (Homo sapiens, UniProt P37023); assay: HotSpot kinase assay; format: biochemical; conditions: read-out: % Enzyme Activity (relative to DMSO controls)
T13 construct: purchased Reaction Biology Corporation

MYLK4 = biological target: T14, MYLK4 (Homo sapiens, UniProt Q86YV6); assay: HotSpot kinase assay; format: biochemical; conditions: read-out: % Enzyme Activity (relative to DMSO controls)
T14 construct: purchased Reaction Biology Corporation
T14 sequence (Q86YV6 whole entry): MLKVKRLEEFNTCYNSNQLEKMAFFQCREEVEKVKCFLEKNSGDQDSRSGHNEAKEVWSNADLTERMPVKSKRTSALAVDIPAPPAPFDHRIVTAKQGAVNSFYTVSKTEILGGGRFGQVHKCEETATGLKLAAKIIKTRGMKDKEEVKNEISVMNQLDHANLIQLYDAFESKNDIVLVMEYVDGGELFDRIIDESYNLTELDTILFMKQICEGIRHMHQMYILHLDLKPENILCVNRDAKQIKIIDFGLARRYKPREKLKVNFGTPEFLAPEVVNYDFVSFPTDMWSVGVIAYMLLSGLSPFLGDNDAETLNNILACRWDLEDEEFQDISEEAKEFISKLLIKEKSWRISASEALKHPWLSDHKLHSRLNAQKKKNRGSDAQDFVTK

EPHA6 = biological target: T15, EPHA6 (Homo sapiens, UniProt Q9UF33); assay: HotSpot kinase assay; format: biochemical; conditions: read-out: % Enzyme Activity (relative to DMSO controls)
T15 construct: purchased Reaction Biology Corporation

PKG2/PRKG2 = biological target: T16, PKG2/PRKG2 (Homo sapiens, UniProt Q13237); assay: HotSpot kinase assay; format: biochemical; conditions: read-out: % Enzyme Activity (relative to DMSO controls)
T16 construct: purchased Reaction Biology Corporation
T16 sequence (Q13237 whole entry): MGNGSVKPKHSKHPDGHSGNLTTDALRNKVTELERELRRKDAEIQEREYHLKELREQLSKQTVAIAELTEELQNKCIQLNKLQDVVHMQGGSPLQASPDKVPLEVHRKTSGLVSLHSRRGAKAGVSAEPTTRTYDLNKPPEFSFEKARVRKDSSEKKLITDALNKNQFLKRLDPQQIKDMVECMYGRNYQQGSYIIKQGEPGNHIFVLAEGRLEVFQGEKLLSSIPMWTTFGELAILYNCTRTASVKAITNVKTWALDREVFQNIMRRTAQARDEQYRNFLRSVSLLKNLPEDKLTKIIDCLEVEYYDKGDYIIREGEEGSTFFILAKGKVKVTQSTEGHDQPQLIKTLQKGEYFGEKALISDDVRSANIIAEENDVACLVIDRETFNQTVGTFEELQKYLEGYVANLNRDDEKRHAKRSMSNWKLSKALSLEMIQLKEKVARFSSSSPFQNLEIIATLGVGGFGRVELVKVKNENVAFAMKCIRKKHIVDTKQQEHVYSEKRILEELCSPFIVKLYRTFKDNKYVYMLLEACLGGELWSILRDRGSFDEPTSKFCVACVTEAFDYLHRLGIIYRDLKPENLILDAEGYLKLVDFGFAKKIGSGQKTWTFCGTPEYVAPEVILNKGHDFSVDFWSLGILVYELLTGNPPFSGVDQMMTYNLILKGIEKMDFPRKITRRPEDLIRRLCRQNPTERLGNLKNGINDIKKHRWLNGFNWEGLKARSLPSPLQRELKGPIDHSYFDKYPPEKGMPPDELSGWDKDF

MEKK3 = biological target: T17, MEKK3 (Homo sapiens, UniProt Q99759); assay: HotSpot kinase assay; format: biochemical; conditions: read-out: % Enzyme Activity (relative to DMSO controls)
T17 construct: purchased Reaction Biology Corporation

CAMK2g = biological target: T18, CAMK2g (Homo sapiens, UniProt Q13555); assay: HotSpot kinase assay; format: biochemical; conditions: read-out: % Enzyme Activity (relative to DMSO controls)
T18 construct: purchased Reaction Biology Corporation

TRKC = biological target: T19, TRKC (Homo sapiens, UniProt Q16288); assay: HotSpot kinase assay; format: biochemical; conditions: read-out: % Enzyme Activity (relative to DMSO controls)
T19 construct: purchased Reaction Biology Corporation

BRSK1 = biological target: T20, BRSK1 (Homo sapiens, UniProt Q8TDC3); assay: HotSpot kinase assay; format: biochemical; conditions: read-out: % Enzyme Activity (relative to DMSO controls)
T20 construct: purchased Reaction Biology Corporation

EPHB2 = biological target: T21, EPHB2 (Homo sapiens, UniProt P29323); assay: HotSpot kinase assay; format: biochemical; conditions: read-out: % Enzyme Activity (relative to DMSO controls)
T21 construct: purchased Reaction Biology Corporation

IKKe/IKBKE = biological target: T22, IKKe/IKBKE (Homo sapiens, UniProt Q14164); assay: HotSpot kinase assay; format: biochemical; conditions: read-out: % Enzyme Activity (relative to DMSO controls)
T22 construct: purchased Reaction Biology Corporation

HSV-2(G) [1] = assay: HSV binding assay (gD western blot), HaCat cells; format: cell-based; conditions: 10 μM, 4 h at 4 °C
Description: After 48 h incubation, plaques were counted by immunoassay using an anti–human IgG antibody peroxidase conjugate (PA1-86064, Thermo Fisher)[33]. […] Western blots were prepared and probed for gD as a marker of bound virus and β-actin as a control.

PKCnu/PRKD3 = biological target: T23, PKCnu/PRKD3 (Homo sapiens, UniProt O94806); assay: HotSpot kinase assay; format: biochemical; conditions: read-out: % Enzyme Activity (relative to DMSO controls)
T23 construct: purchased Reaction Biology Corporation

HSV-2(G) [2] = assay: synchronized infection (entry) assay, CaSki; format: cell-based
Description: To quantify viral entry, cells were synchronously infected by allowing virus to bind to cells at 4°C for 4 h, washed, and then transferred to 37 °C. CIMSS or control DMSO was added at the time of temperature shift. At indicated times post-temperature shift, the cells were treated with a low pH buffer to inactivate virus that had not penetrated, washed, overlaid with medium containing methyl cellulose and viral plaques were counted at 48 h. Entry was also assessed by immunoblotting nuclear extracts for VP16. […] Nuclear extracts were prepared after 1 h and analyzed by western blot with antibodies targeting VP16, histone H1 and golgin-97[5]. The non-nuclear fraction was also probed for golgin-97 as a positive control. […] After 1 or 4 h of incubation, the cells were fixed. Plasma membranes were stained using Image -IT^TM LIVE Plasma Membrane kit and nuclei were stained with DAPI (Thermo Fisher Scientific, Cat 134406). The percentage of GFP + nuclei was determined by counting ~200 cells over 3–4 fields. Images were obtained with Leica SP8 microscope (objective 63 × 1.4); xz images were captured with optical slice 0.6 µm, 25–30 slices per image.

MST2/STK3 = biological target: T24, MST2/STK3 (Homo sapiens, UniProt Q13188); assay: HotSpot kinase assay; format: biochemical; conditions: read-out: % Enzyme Activity (relative to DMSO controls)
T24 construct: purchased Reaction Biology Corporation

CAMK1b = biological target: T25, CAMK1b (Homo sapiens, UniProt Q6P2M8); assay: HotSpot kinase assay; format: biochemical; conditions: read-out: % Enzyme Activity (relative to DMSO controls)
T25 construct: purchased Reaction Biology Corporation
T25 sequence (Q6P2M8 whole entry): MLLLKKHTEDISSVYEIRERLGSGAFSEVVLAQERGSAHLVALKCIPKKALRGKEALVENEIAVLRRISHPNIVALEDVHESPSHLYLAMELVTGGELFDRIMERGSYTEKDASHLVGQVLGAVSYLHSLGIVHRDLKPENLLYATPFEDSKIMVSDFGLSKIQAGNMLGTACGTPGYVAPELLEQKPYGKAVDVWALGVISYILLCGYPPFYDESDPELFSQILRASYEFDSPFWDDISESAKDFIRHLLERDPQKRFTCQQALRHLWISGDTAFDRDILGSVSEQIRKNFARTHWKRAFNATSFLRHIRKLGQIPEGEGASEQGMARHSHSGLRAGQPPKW

MKK7 = biological target: T26, MKK7 (Homo sapiens, UniProt O14733); assay: HotSpot kinase assay; format: biochemical; conditions: read-out: % Enzyme Activity (relative to DMSO controls)
T26 construct: purchased Reaction Biology Corporation
T26 sequence (O14733 whole entry): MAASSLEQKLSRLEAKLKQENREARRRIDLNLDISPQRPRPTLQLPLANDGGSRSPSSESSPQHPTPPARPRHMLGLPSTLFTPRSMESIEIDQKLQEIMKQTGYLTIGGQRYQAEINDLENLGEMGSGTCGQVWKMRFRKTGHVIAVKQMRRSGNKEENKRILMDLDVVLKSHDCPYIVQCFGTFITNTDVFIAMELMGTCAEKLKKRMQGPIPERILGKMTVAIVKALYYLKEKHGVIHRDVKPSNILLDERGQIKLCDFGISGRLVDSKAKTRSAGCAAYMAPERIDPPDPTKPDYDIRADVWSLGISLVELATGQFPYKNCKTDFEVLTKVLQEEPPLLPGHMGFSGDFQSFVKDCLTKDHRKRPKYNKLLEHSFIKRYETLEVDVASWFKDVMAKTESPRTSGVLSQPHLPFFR

MRCKa/CDC42BPA = biological target: T27, MRCKa/CDC42BPA (Homo sapiens, UniProt Q5VT25); assay: HotSpot kinase assay; format: biochemical; conditions: read-out: % Enzyme Activity (relative to DMSO controls)
T27 construct: purchased Reaction Biology Corporation
T27 sequence (Q5VT25 whole entry): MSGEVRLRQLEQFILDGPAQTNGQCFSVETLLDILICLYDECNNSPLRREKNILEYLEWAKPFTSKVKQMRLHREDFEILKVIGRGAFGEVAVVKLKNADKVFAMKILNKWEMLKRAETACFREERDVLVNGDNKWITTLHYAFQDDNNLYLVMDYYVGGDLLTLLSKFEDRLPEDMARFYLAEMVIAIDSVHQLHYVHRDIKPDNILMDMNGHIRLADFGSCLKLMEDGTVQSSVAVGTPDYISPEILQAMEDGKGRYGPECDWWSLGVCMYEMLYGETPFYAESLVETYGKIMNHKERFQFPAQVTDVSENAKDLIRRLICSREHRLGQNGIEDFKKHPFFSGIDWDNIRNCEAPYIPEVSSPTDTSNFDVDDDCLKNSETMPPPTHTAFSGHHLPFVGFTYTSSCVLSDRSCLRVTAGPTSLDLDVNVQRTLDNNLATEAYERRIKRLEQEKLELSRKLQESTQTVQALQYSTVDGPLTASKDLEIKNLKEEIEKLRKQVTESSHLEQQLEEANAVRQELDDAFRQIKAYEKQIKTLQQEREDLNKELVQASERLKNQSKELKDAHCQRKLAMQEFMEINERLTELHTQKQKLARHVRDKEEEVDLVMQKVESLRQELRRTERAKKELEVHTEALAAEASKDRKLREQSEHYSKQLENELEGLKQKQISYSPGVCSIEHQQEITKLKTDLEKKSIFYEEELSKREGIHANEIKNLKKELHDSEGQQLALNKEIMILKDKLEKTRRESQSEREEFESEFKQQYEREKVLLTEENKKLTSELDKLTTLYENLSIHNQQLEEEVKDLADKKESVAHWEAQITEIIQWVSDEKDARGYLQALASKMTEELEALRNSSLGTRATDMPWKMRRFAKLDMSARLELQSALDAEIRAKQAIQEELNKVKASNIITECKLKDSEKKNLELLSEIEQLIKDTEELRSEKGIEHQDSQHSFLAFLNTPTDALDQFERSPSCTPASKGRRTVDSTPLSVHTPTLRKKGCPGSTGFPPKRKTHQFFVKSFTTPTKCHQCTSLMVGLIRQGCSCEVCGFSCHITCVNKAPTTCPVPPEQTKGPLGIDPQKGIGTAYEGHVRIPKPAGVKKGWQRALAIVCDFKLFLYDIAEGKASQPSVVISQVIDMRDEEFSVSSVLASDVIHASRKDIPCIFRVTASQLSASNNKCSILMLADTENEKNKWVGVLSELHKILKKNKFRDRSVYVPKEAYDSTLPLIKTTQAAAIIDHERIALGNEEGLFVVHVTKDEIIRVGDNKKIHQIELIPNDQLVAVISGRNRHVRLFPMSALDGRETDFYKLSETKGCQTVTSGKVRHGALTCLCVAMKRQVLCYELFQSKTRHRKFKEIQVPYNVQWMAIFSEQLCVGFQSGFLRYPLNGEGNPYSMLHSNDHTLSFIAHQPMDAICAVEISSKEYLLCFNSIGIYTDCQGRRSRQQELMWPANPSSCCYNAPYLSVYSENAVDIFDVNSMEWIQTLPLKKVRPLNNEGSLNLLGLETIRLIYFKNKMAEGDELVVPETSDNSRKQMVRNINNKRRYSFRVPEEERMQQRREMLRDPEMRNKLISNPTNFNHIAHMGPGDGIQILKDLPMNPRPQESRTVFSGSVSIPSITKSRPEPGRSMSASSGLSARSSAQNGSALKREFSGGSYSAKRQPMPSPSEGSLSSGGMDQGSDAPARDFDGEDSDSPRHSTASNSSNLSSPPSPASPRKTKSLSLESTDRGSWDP

RAF1 = biological target: T28, RAF1 (Homo sapiens, UniProt P04049); assay: HotSpot kinase assay; format: biochemical; conditions: read-out: % Enzyme Activity (relative to DMSO controls)
T28 construct: purchased Reaction Biology Corporation

`CO[C@@H]1[C@H](N(C)C(=O)CCC(=O)NCc2cn(CCCS(=O)(=O)O)nn2)C[C@H]2O[C@]1(C)n1c3ccccc3c3c4c(c5c6ccccc6n2c5c31)C(=O)NC4` [CIMSS] showed a remaining activity at 10 µM (DYRK3) of 28.2%, a remaining activity at 10 µM (P38b/MAPK11) of 84.5% and a remaining activity at 10 µM (PKCmu/PRKD1) of 30.3%. For the same compound, the IC50 (IR; Supplementary Table 1, Insulin Receptor, read-out: IC50 (Molar concentration)) was 0.803 µM, the remaining activity at 10 µM (IR; read-out: % Enzyme Activity (relative to DMSO controls), 10µM) was 15.8% and the remaining activity at 10 µM (GLK/MAP4K3) was 0.96%. For the same compound, the remaining activity at 10 µM (KDR/VEGFR2) was 7.22%, the remaining activity at 10 µM (PKCepsilon) was 1.11% and the remaining activity at 10 µM (CDK16/cyclin Y (PCTAIRE)) was 76.6%. The remaining activity at 10 µM (WNK2) was 71.9%, the remaining activity at 10 µM (MEK5) was 40.4% and the remaining activity at 10 µM (MKK6) was 59.7%. The remaining activity at 10 µM (NEK2) was 18.8%, the induction of apoptosis (HaCat cells) was “did not induce apoptosis” and the remaining activity at 10 µM (ALK1/ACVRL1) was 70%. The remaining activity at 10 µM (MYLK4) was 6.48%, the remaining activity at 10 µM (EPHA6) was 34.6% and the remaining activity at 10 µM (PKG2/PRKG2) was 1.99%. It also gave a remaining activity at 10 µM (MEKK3) of 6.32%, a remaining activity at 10 µM (CAMK2g) of 1.25% and a remaining activity at 10 µM (TRKC) of 0.34%. For the same compound, the remaining activity at 10 µM (BRSK1) was 1.55%, the remaining activity at 10 µM (EPHB2) was 28.5% and the remaining activity at 10 µM (IKKe/IKBKE) was 1.47%. The “HSV binding to cells” value (HSV-2(G) [1]) was “did not block”, the remaining activity at 10 µM (PKCnu/PRKD3) was 11.4% and the “plaques counted at 48 h” value (HSV-2(G) [2]; 0.5 h post-temperature shift (Fig 3b source data)) was 49 and 51. The “plaques counted at 48 h” value (HSV-2(G) [2]; 1 h) was 48 and 46, the “plaques counted at 48 h” value (HSV-2(G) [2]; 2 h) was 52 and 37 and the remaining activity at 10 µM (MST2/STK3) was 3.52%. It also gave a remaining activity at 10 µM (CAMK1b) of 59.5%, a remaining activity at 10 µM (MKK7) of 96.2% and a remaining activity at 10 µM (MRCKa/CDC42BPA) of 71.3%. It also gave a remaining activity at 10 µM (RAF1) of 111%.
